Experimental data as given in patent US12052991B2, “Substituted pyridinyloxybenzenes and salts thereof and use thereof as herbicidal agents” (Bayer Aktiengesellschaft, priority 2018, dated 2024).

Tests used:
Assay type in all cases: in vivo
[1] = system: Alopecurus myosuroides (ALOMY); experiment: Herbicidal pre-emergence action, test C (Table C9); conditions: visual scoring after about 3 weeks, 100% = plants have died, 0% = like control plants
How it was run: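 After sowing weed seeds into sandy loam and covering them, the soil surface was treated with aqueous WP or EC preparations containing 0.5% additive, 600 L/ha, at 1280 or 320 g/ha. Scoring was visual, in percent against untreated, at about 3 weeks.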

Setaria viridis (SETVI) = experiment: Herbicidal pre-emergence action, test D, single sowings (Table D3); conditions: dosage 80 g/ha, scored after about 3 weeks
Description: (§1) Seeds of monocotyledonous and dicotyledonous weed plants were laid out in plastic or organic plant pots (single sowings with one species of mono- or dicotyledonous weed plant per pot) and covered with soil. The compounds of the invention, formulated in the form of wettable powders (WP) or as emulsion concentrates (EC), were then applied to the surface of the covering soil as aqueous suspension or emulsion with addition of 0.5% additive at a water application rate equivalent to 600 l/ha (converted). After the treatment, the pots were placed in a greenhouse and kept under good growth conditions for the test plants. After about 3 weeks, the effect of the preparations was scored visually in comparison with untreated controls as percentages. For example, 100% activity=the plants have died, 0% activity=like control plants. Tables D1 to D8 below show the effects of selected compounds of the general formula (I) according to Table 1 on various harmful plants and an application rate corresponding to 80 g/ha, which were obtained by the experimental procedure mentioned above.

[2] = system: harmful plants ALOMY, DIGSA, SETVI, ABUTH, AMARE, MATIN, VIOTR and VERPE; experiment: Herbicidal pre-emergence action (test D), summary of Tables D1-D8; conditions: application rate of 80 g of active ingredient per hectare; summary in words
Description: as §1, with “plants.” for “plants. Tables D1 to D8 below show the effects of selected compounds of the general formula (I) according to Table 1 on various harmful plants and an application rate corresponding to 80 g/ha, which were obtained by the experimental procedure mentioned above.”
Tables D1 to D8 below show the effects of selected compounds of the general formula (I) according to Table 1 on various harmful plants and an application rate corresponding to 80 g/ha, which were obtained by the experimental procedure mentioned above.

[3] = system: Alopecurus myosuroides (ALOMY); experiment: Herbicidal pre-emergence action, test D, single sowings (Table D1); conditions: 80 g/ha; scored visually after about 3 weeks; 100% = plants have died, 0% = like control plants
Description: as §1

[4] = system: Abutilon theophrasti (ABUTH); experiment: Herbicidal pre-emergence action, test D, single sowings (Table D4); conditions: dosage 80 g/ha, scored after about 3 weeks
Description: as §1

SMILES | Pre-emergence action against Alopecurus myosuroides (ALOMY) ([1]; dosage 1280 g/ha) [%] | Pre-emergence action against Setaria viridis (SETVI) (Setaria viridis (SETVI)) [%] | herbicidal activity against the harmful plants of Tables D1-D8 in pre-emergence treatment [2] | Pre-emergence action against Alopecurus myosuroides (ALOMY) [3] [%] | Pre-emergence action against Abutilon theophrasti (ABUTH) [4] [%] | Pre-emergence action against Alopecurus myosuroides (ALOMY) ([1]; dosage 320 g/ha) [%]
Cc1cccc(Oc2ccc(Cl)cn2)c1-c1cc(C(F)F)no1 [Example 1-18, 5-[2-[(5-Chloro-2-pyridyl)oxy]-6-methylphenyl]-3-(difluoromethyl)isoxazole] | 90 |  |  |  |  | 
Fc1cc(Cl)cnc1Oc1cccc(F)c1-c1cc(C(F)F)no1 [Example 1-19] |  | 100 | very good herbicidal activity | 100 | 100 | 
Cc1cccc(Oc2ncc(Cl)cc2F)c1-c1cc(C(F)F)no1 [Example 1-20] | 100 |  |  |  |  | 90
Fc1cc(Cl)cnc1Oc1ccccc1-c1cc(C(F)F)no1 [Example 1-36] | 100 | 80 | very good herbicidal activity |  | 100 | 90
Fc1cccc(Oc2ccc(Cl)cn2)c1-c1cc(C(F)F)no1 [Example 1-17] |  | 100 | very good herbicidal activity | 100 | 100 | 
FC(F)c1cc(-c2ccccc2Oc2ccc(Cl)cn2)on1 [Example 1-35] | 90 | 100 | very good herbicidal activity |  | 80 | 
Fc1cccc(Oc2ccc(Br)cn2)c1-c1cc(C(F)F)no1 [Example 1-40] | 100 |  |  |  |  | 100
